# Activity calls are given as the source filed them. No cut-off for these calls is given here.
# Tests used:
# [1] = target: Cyclin-dependent kinase 2/cyclin A (Homo sapiens) (UniProt P24941+P20248+P78396); test: Inhibition of CDK2/cyclin A at 10 uM by IMAP assay; format: protein-complex assay
# [2] = target: Dual specificity mitogen-activated protein kinase kinase 1 (Homo sapiens) (UniProt Q02750); test: Inhibition of MEK1 at 10 uM
# [3] = target: Dual specificity mitogen-activated protein kinase kinase 2 (Homo sapiens) (UniProt P36507); test: Inhibition of MEK2 at 10 uM
# [4] = target: Hepatocyte growth factor receptor (Homo sapiens) (UniProt P08581); test: Inhibition of MET at 10 uM
# [5] = target: Mitogen-activated protein kinase 14 (Homo sapiens) (UniProt Q16539); test: Inhibition of p38alpha at 10 uM
# [6] = target: Mitogen-activated protein kinase 11 (Homo sapiens) (UniProt Q15759); test: Inhibition of p38beta at 10 uM
# [7] = target: Platelet-derived growth factor receptor alpha (Homo sapiens) (UniProt P16234); test: Inhibition of PDGFRA at 10 uM
# [8] = target: Platelet-derived growth factor receptor beta (Homo sapiens) (UniProt P09619); test: Inhibition of PDGFRB at 10 uM
# [9] = target: Phosphatidylinositol 4,5-bisphosphate 3-kinase catalytic subunit gamma isoform (Homo sapiens) (UniProt P48736); test: Inhibition of PIK3CG at 10 uM
# [10] = target: Serine/threonine-protein kinase pim-1 (Homo sapiens) (UniProt P11309); test: Inhibition of PIM1 at 10 uM
# [11] = target: Serine/threonine-protein kinase pim-2 (Homo sapiens) (UniProt Q9P1W9); test: Inhibition of PIM2 at 10 uM
# [12] = target: Serine/threonine-protein kinase pim-3 (Homo sapiens) (UniProt Q86V86); test: Inhibition of PIM3 at 10 uM
# [13] = target: Serine/threonine-protein kinase PLK4 (Homo sapiens) (UniProt O00444); test: Inhibition of PLK4 at 10 uM
# [14] = target: RAF proto-oncogene serine/threonine-protein kinase (Homo sapiens) (UniProt P04049); test: Inhibition of RAF1 at 10 uM
# [15] = target: Proto-oncogene tyrosine-protein kinase Src (Homo sapiens) (UniProt P12931); test: Inhibition of SRC at 10 uM
# [16] = target: SRSF protein kinase 3 (Homo sapiens) (UniProt Q9UPE1); test: Inhibition of SRPK3 at 10 uM
# [17] = target: TGF-beta receptor type-1 (Homo sapiens) (UniProt P36897); test: Inhibition of TGFBR1 at 10 uM
# [18] = target: Angiopoietin-1 receptor (Homo sapiens) (UniProt Q02763); test: Inhibition of TIE2 at 10 uM
# [19] = target: Non-receptor tyrosine-protein kinase TYK2 (Homo sapiens) (UniProt P29597); test: Inhibition of TYK2 at 10 uM
# HL-60 = test: Antiproliferative activity against human HL60 cells after 5 days by MTT assay; format: functional, cell-based; settings: HL-60, 120 h
# Huh-7 = test: Antiproliferative activity against human HuH7 cells after 72 hrs by MTT assay; format: functional, cell-based; settings: Huh-7, 72 h
# [20] = Antiproliferative activity against human IMR90 cells after 72 hrs by MTT assay; format: cell-based; settings: IMR-90, 72 h
# [21] = target: Tyrosine-protein kinase ABL1 (Homo sapiens) (UniProt P00519); test: Inhibition of ABL1 at 10 uM
# [22] = target: Atypical kinase COQ8A, mitochondrial (Homo sapiens) (UniProt Q8NI60); test: Inhibition of ADCK3 at 10 uM
# [23] = target: ALK tyrosine kinase receptor (Homo sapiens) (UniProt Q9UM73); test: Inhibition of ALK at 10 uM
# [24] = target: Serine/threonine-protein kinase B-raf (Homo sapiens) (UniProt P15056); test: Inhibition of BRAF at 10 uM
# [25] = target: Tyrosine-protein kinase BTK (Homo sapiens) (UniProt Q06187); test: Inhibition of BTK at 10 uM
# [26] = target: Cyclin-dependent kinase 2 (Homo sapiens) (UniProt P24941); test: Inhibition of CDK2 at 10 uM
# [27] = target: Cyclin-dependent kinase 3 (Homo sapiens) (UniProt Q00526); test: Inhibition of CDK3 at 10 uM
# [28] = target: Cyclin-dependent kinase 7 (Homo sapiens) (UniProt P50613); test: Inhibition of CDK7 at 10 uM
# [29] = target: Cyclin-dependent kinase 9 (Homo sapiens) (UniProt P50750); test: Inhibition of CDK9 at 10 uM
# [30] = target: Serine/threonine-protein kinase Chk1 (Homo sapiens) (UniProt O14757); test: Inhibition of CHEK1 at 10 uM
# [31] = target: Macrophage colony-stimulating factor 1 receptor (Homo sapiens) (UniProt P07333); test: Inhibition of CSF1R at 10 uM
# [32] = target: Casein kinase I isoform gamma-2 (Homo sapiens) (UniProt P78368); test: Inhibition of CSNK1G2 at 10 uM
# [33] = target: Dual specificity tyrosine-phosphorylation-regulated kinase 1B (Homo sapiens) (UniProt Q9Y463); test: Inhibition of DYRK1B at 10 uM
# [34] = target: Epidermal growth factor receptor (Homo sapiens) (UniProt P00533); test: Inhibition of EGFR at 10 uM
# [35] = target: Receptor tyrosine-protein kinase erbB-2 (Homo sapiens) (UniProt P04626); test: Inhibition of ERBB2 at 10 uM
# [36] = target: Receptor tyrosine-protein kinase erbB-4 (Homo sapiens) (UniProt Q15303); test: Inhibition of ERBB4 at 10 uM
# [37] = target: Mitogen-activated protein kinase 3 (Homo sapiens) (UniProt P27361); test: Inhibition of ERK1 at 10 uM
# [38] = target: Fibroblast growth factor receptor 2 (Homo sapiens) (UniProt P21802); test: Inhibition of FGFR2 at 10 uM
# [39] = target: Fibroblast growth factor receptor 3 (Homo sapiens) (UniProt P22607); test: Inhibition of FGFR3 at 10 uM
# [40] = target: Insulin-like growth factor 1 receptor (Homo sapiens) (UniProt P08069); test: Inhibition of IGF1R at 10 uM
# [41] = target: Insulin receptor (Homo sapiens) (UniProt P06213); test: Inhibition of INSR at 10 uM
# [42] = target: Tyrosine-protein kinase JAK2 (Homo sapiens) (UniProt O60674); test: Inhibition of JAK2 at 10 uM
# [43] = target: Mast/stem cell growth factor receptor Kit (Homo sapiens) (UniProt P10721); test: Inhibition of KIT at 10 uM
# [44] = target: Receptor-type tyrosine-protein kinase FLT3 (Homo sapiens) (UniProt P36888); test: Inhibition of FLT3 at 10 uM
# [45] = target: Glycogen synthase kinase-3 beta (Homo sapiens) (UniProt P49841); test: Inhibition of GSK3-beta at 10 uM
# K562 = test: cells; settings: Homo sapiens, K562, 72 h
# Description: Antiproliferative activity against human K562 cells after 72 hrs by MTT assay
# HCT-116 = test: cells; settings: Homo sapiens, HCT-116, 72 h
# Description: Antiproliferative activity against human HCT116 cells after 72 hrs by MTT assay
# [46] = target: cAMP-dependent protein kinase catalytic subunit alpha (Homo sapiens) (UniProt P17612); test: Inhibition of PKACalpha at 10 uM
# Chain of Macrophage colony-stimulating factor 1 receptor (Homo sapiens) (P07333 whole entry, canonical isoform): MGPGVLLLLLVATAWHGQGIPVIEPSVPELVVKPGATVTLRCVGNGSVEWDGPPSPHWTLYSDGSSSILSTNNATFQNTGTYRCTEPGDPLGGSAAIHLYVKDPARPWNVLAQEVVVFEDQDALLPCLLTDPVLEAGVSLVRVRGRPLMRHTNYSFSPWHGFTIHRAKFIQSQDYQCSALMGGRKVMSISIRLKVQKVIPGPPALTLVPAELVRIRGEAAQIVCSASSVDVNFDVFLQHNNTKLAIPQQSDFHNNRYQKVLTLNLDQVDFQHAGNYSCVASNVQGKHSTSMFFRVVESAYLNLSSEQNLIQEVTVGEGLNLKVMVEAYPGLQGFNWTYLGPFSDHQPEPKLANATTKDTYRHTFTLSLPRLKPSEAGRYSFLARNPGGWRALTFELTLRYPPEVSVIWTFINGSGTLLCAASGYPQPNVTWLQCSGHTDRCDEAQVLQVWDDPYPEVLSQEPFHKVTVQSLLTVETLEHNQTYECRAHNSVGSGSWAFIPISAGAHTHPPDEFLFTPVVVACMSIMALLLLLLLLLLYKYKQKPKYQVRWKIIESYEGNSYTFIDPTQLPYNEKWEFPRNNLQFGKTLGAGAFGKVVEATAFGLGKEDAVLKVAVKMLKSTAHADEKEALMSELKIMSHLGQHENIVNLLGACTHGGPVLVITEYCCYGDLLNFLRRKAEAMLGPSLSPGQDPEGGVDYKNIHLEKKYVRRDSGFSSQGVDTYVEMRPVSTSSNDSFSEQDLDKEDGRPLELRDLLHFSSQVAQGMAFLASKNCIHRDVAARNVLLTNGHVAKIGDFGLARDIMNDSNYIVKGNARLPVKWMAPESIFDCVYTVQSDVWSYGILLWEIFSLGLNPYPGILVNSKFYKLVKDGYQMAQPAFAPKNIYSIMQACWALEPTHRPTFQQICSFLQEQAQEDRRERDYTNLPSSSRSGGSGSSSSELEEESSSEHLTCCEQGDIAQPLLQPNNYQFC
# Chain of Mitogen-activated protein kinase 11 (Homo sapiens) (Q15759 whole entry): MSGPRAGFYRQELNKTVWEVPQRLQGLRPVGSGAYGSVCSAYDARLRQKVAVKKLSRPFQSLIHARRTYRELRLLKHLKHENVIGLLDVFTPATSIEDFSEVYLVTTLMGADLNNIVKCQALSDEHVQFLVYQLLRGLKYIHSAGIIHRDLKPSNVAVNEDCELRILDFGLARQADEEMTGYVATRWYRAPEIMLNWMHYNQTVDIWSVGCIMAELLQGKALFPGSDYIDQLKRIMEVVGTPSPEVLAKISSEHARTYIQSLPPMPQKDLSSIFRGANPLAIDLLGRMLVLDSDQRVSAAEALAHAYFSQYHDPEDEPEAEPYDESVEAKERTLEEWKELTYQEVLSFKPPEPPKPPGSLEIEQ
# Chain of Insulin-like growth factor 1 receptor (Homo sapiens) (P08069 31-736 limits assumed): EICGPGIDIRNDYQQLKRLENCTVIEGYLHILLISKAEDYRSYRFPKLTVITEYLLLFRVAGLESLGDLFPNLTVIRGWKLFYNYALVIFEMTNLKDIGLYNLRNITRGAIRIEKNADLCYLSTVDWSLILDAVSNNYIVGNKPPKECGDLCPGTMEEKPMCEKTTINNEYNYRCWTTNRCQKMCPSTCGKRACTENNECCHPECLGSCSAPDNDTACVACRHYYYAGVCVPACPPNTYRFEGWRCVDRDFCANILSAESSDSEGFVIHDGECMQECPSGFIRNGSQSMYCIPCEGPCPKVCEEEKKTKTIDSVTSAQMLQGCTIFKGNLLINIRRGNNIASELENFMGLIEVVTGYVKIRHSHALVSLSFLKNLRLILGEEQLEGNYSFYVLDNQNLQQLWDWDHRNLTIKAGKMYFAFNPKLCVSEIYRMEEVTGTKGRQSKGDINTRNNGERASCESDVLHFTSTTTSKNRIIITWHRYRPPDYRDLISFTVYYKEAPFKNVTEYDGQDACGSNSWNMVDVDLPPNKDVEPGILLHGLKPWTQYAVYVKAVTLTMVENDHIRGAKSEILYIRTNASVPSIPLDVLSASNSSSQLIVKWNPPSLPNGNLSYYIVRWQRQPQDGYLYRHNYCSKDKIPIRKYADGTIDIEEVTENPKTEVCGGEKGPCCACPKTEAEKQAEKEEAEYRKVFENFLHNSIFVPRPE
# Chain of Insulin-like growth factor 1 receptor (Homo sapiens) (P08069 741-1367 limits assumed): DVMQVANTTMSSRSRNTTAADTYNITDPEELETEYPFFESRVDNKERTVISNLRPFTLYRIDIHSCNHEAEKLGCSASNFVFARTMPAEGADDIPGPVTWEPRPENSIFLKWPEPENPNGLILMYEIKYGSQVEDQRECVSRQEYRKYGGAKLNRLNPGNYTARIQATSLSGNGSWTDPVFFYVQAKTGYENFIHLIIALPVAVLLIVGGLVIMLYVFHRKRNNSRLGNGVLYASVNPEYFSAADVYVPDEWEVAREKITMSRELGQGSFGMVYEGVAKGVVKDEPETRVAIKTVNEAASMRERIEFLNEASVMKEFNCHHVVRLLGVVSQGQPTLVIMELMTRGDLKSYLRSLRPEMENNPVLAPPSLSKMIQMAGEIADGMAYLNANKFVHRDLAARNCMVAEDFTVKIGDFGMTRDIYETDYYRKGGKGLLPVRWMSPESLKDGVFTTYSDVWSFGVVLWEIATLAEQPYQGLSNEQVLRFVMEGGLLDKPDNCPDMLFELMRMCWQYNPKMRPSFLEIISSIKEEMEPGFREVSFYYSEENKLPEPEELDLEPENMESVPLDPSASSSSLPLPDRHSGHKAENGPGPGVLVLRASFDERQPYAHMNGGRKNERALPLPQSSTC
# Chain of Tyrosine-protein kinase BTK (Homo sapiens) (Q06187 whole entry): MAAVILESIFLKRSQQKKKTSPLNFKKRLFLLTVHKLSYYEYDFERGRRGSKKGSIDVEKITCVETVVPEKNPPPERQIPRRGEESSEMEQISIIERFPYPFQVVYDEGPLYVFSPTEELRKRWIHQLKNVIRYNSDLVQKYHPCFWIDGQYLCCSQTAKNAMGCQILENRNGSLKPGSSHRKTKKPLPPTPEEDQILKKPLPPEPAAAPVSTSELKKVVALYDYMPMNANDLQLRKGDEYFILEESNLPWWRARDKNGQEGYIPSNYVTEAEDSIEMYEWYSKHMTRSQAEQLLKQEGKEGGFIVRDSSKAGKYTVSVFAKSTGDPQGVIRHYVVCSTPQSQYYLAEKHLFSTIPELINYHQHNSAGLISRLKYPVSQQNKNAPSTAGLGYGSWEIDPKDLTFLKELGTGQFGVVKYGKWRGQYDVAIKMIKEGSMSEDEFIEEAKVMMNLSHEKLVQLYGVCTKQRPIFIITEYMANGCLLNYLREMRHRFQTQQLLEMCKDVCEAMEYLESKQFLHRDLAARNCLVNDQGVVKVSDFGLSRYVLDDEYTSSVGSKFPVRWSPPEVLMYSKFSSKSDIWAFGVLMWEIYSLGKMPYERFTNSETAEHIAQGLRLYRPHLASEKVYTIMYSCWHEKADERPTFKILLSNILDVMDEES
# Chain of Tyrosine-protein kinase JAK2 (Homo sapiens) (O60674 whole entry): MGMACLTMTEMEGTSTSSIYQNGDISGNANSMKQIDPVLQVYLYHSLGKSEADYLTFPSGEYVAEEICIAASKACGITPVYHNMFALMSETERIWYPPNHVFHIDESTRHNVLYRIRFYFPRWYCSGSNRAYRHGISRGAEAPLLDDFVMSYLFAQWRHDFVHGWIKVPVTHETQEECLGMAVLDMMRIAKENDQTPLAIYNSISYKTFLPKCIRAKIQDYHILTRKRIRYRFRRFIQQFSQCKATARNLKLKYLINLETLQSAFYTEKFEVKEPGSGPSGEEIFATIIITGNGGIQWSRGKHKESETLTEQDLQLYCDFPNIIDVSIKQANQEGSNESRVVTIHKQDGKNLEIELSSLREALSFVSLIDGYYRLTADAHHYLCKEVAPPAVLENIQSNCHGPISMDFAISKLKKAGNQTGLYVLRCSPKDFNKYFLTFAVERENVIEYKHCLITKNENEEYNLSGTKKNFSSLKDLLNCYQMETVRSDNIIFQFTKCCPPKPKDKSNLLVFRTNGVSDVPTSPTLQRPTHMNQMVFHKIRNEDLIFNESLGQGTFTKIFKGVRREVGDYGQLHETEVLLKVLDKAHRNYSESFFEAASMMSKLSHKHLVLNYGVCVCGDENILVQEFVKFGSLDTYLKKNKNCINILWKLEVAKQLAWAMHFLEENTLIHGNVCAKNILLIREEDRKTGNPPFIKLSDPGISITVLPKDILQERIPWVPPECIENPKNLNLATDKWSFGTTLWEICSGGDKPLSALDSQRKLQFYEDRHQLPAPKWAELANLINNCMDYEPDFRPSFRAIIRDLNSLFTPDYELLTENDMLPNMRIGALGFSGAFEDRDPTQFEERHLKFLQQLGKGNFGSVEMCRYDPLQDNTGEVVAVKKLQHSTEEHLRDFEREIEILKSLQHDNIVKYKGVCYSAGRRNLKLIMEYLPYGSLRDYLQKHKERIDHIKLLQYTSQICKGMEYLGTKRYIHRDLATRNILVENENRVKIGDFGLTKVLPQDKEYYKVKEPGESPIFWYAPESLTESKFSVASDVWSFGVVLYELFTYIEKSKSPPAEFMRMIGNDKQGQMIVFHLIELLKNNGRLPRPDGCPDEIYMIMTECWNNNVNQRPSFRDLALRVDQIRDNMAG
structure (smiles),measurement,setting,value
O=C1Nc2ccccc2/C1=C1\C(=O)N(c2ccccc2)c2ccccc21,inhibition,[1],inactive
CN1C(=O)/C(=C2/C(=O)Nc3ccccc32)c2ccccc21 [MEISOINDIGO],inhibition,[2],16%
same,inhibition,[3],0%
same,inhibition,[4],0%
same,inhibition,[5],0%
same,inhibition,[6],0%
same,inhibition,[7],0%
same,inhibition,[8],15%
same,inhibition,[9],0%
same,inhibition,[10],3%
same,inhibition,[11],2%
same,inhibition,[12],7%
same,inhibition,[13],12%
same,inhibition,[14],0%
same,inhibition,[15],15%
same,inhibition,[16],0%
same,inhibition,[17],0%
same,inhibition,[18],6%
same,inhibition,[19],8%
same,inhibition,[1],inactive
same,IC50,HL-60,12.2 µM
same,IC50,Huh-7,18.3 µM
same,IC50,[20],7.7 µM
same,inhibition,[21],11%
same,inhibition,[22],0%
same,inhibition,[23],0%
same,inhibition,[24],0%
same,inhibition,[25],0%
same,inhibition,[26],4%
same,inhibition,[27],0%
same,inhibition,[28],56%
same,inhibition,[29],0%
same,inhibition,[30],0%
same,inhibition,[31],0%
same,inhibition,[32],0%
same,inhibition,[33],0%
same,inhibition,[34],16%
same,inhibition,[35],0%
same,inhibition,[36],0%
same,inhibition,[37],0%
same,inhibition,[38],0%
same,inhibition,[39],4%
same,inhibition,[40],13%
same,inhibition,[41],10%
same,inhibition,[42],4%
same,inhibition,[43],8%
same,inhibition,[44],0%
same,inhibition,[45],16%
same,IC50,K562,6.7 µM
same,IC50,HCT-116,15.4 µM
same,inhibition,[46],0%
O=C1Nc2ccccc2/C1=C1\C(=O)N(CCCc2ccccc2)c2ccccc21,inhibition,[2],0%
same,inhibition,[3],9%
same,inhibition,[4],0%
same,inhibition,[5],4%
same,inhibition,[6],32%
same,inhibition,[7],0%
same,inhibition,[8],49%
same,inhibition,[9],19%
same,inhibition,[10],0%
same,inhibition,[11],23%
same,inhibition,[12],0%
same,inhibition,[13],39%
same,inhibition,[14],9%
same,inhibition,[15],15%
same,inhibition,[16],7%
same,inhibition,[17],0%
same,inhibition,[18],0%
same,inhibition,[19],0%
same,inhibition,[1],inactive
same,inhibition,[21],46%
same,inhibition,[22],45%
same,inhibition,[23],0%
same,inhibition,[24],0%
same,inhibition,[25],13%
same,inhibition,[26],0%
same,inhibition,[27],0%
same,inhibition,[28],28%
same,inhibition,[29],0%
same,inhibition,[30],35%
same,inhibition,[31],11%
same,inhibition,[32],0%
same,inhibition,[33],0%
same,inhibition,[34],0%
same,inhibition,[35],3%
same,inhibition,[36],16%
same,inhibition,[37],18%
same,inhibition,[38],42%
same,inhibition,[39],32%
same,inhibition,[40],20%
same,inhibition,[41],0%
same,inhibition,[42],25%
same,inhibition,[43],49%
same,inhibition,[44],0%
same,inhibition,[45],5%
same,inhibition,[46],12%
O=Nc1c(-c2c(O)[nH]c3ccccc23)[nH]c2ccccc12 [INDIRUBIN-3-MONOXIME],inhibition,[1],70%
same,IC50,HL-60,15.7 µM
same,IC50,[20],18.2 µM
same,IC50,K562,> 30 µM
same,IC50,HCT-116,12 µM
O=C1Nc2cc(Br)ccc2/C1=C1/Nc2ccccc2/C1=N\O,inhibition,[1],70%
O=C1Nc2ccccc2/C1=C1\C(=O)N(CCc2ccc(O)cc2)c2ccccc21,inhibition,[1],inactive
same,IC50,HL-60,> 30 µM
same,IC50,Huh-7,19.9 µM
same,IC50,[20],> 30 µM
same,IC50,K562,> 30 µM
same,IC50,HCT-116,> 30 µM
CC(=O)Nc1ccc(CCN2C(=O)/C(=C3/C(=O)Nc4ccccc43)c3ccccc32)cc1,inhibition,[1],inactive
same,IC50,HL-60,> 30 µM
same,IC50,Huh-7,13.3 µM
same,IC50,[20],19.5 µM
same,IC50,K562,> 30 µM
same,IC50,HCT-116,> 30 µM
O=C1Nc2ccccc2/C1=C1\C(=O)N(CCc2ccc([N+](=O)[O-])cc2)c2ccccc21,inhibition,[1],inactive
same,IC50,HL-60,> 30 µM
same,IC50,Huh-7,13.3 µM
same,IC50,[20],7.5 µM
same,IC50,K562,> 30 µM
same,IC50,HCT-116,> 30 µM
O=C1Nc2ccccc2/C1=C1\C(=O)N(CCc2ccccc2)c2ccccc21,inhibition,[1],inactive
same,IC50,HL-60,11.9 µM
same,IC50,Huh-7,12 µM
same,IC50,[20],6.8 µM
same,IC50,K562,7.3 µM
same,IC50,HCT-116,12.2 µM
CN1C(=O)/C(=C2/C(=O)N(C)c3ccccc32)c2ccccc21,inhibition,[1],inactive
COc1ccc(CCN2C(=O)/C(=C3/C(=O)Nc4ccccc43)c3ccccc32)cc1,inhibition,[1],inactive
same,IC50,HL-60,12 µM
same,IC50,Huh-7,7.5 µM
same,IC50,[20],5.4 µM
same,IC50,K562,1.4 µM
same,IC50,HCT-116,11.6 µM
O=C1Nc2ccccc2/C1=C1\C(=O)N(Cc2ccccc2)c2ccccc21,inhibition,[1],inactive
Cc1ccc(CCN2C(=O)/C(=C3/C(=O)Nc4ccccc43)c3ccccc32)cc1,inhibition,[1],inactive
same,IC50,HL-60,> 30 µM
same,IC50,Huh-7,19 µM
same,IC50,[20],> 30 µM
same,IC50,K562,> 30 µM
same,IC50,HCT-116,> 30 µM
O=C1Nc2ccccc2/C1=C1\C(=O)Nc2ccccc21 [ISOINDIGO],inhibition,[1],inactive
same,IC50,HL-60,16.6 µM
same,IC50,Huh-7,28.9 µM
same,IC50,[20],16.3 µM
same,IC50,K562,6.7 µM
same,IC50,HCT-116,> 30 µM
O=C1Nc2ccccc2C1C1C(=O)Nc2ccccc21 (configuration not stated),inhibition,[1],inactive

# — ChEMBL document CHEMBL1152632, “Synthesis and evaluation of functionalized isoindigos as antiproliferative agents” (Bioorg Med Chem, 2009)
